According to patent US20240132477A1, “Benzimidazole Derivatives and Their Use As Inhibitors of ITK For The Treatment of Skin Disease” (PFIZER INC., priority 2020, published 2024):

Columns and labels:
[1] = target: Tropomyosin Receptor Kinase A (TRKA, NTRK1 enzyme) (Homo sapiens (Human), UniProt P04629); test: TRKA (NTRK1) ThermoFisher Z'-LYTE assay; type: biochemical; details: test compound 1 uM, ATP 1 mM; arithmetic mean of count n; read-out: TRKA % inhibition
Protocol: Tropomyosin Receptor Kinase a (TRKA) Activity, % Inhibition
TRKA, also known as neurotrophic tyrosine kinase receptor type 1 (NTKR1) activity was determined by measuring the effect of a test compound on the activity against the NTRK1 enzyme using the ThermoFisher Z′-LYTE Assay fluorescence-based coupled enzyme format (www.thermofisher.com/selectscreen). Test compounds were screened at a fixed concentration of 1 uM and the % inhibition was determined compared to controls at a fixed ATP concentration of 1 mM. The resulting effect value for the tested compound was compared to the assay controls to determine the % inhibition (%). % Inhibition (%) values for compounds of the invention are presented in the Table that follows.

[2] = target: IL-2-Inducible T-Cell Kinase (ITK) (Homo sapiens (Human), UniProt Q08881); test: ITK enzyme assay; type: biochemical; details: geometric mean of count n; ITK FL enzyme, BTK peptide substrate
Protocol: IL-2-Inducible T-Cell Kinase (ITK) Activity, IC50 (uM)
ITK activity was determined by measuring the effect of a test compound in an ITK enzyme assay.
1.0 M HEPES Buffer pH 7.5 solution was prepared as follows: 238.3 g HEPES free acid (Sigma) and 800 mL of water were combined, and the mixture was stirred until complete dissolution. The pH was adjusted to 7.5 via titration with 5N NaOH and the volume adjusted to 1000 mL. The solution was filtered and sterilized.
ITK assay buffer was prepared as follows: 50 mL of HPLC-grade water was treated with 2 mL of 1.0 M HEPES Buffer, 500 μL of 2% Gelatin (Sigma), 1.0 mL of aqueous MgCl2 solution (1.0 M), and 1.0 mL of aqueous glutathione solution (0.5 M), and the solution was mixed. The solution was brought to 99 mL in a graduated cylinder by addition of water and sterilized through a 0.2 μm filter. 0.1 mL of Brij-35™ Surfact-AmpS™ Detergent Solution (10% w/v aqueous solution, ThermoFisher) and 1.0 mL of ATP (Teknova, 100 mM) were added and the solution was mixed.
Preparation of 1.33×ITK enzyme solution was as follows: 49.99 mL of ITK assay buffer was treated with 4.1 μL of ITK enzyme (ITK FL (N-Flag and C-His tagged, ˜72 kDa) Lake Pharma, 0.25 mg/ml in a buffer containing 25 mM Tris pH 7.8, 150 mM NaCl, 10% glycerol and 2 mM TCEP) and the mixture was gently agitated. The resulting solution was stored on ice. 30 Minutes prior to use, the enzyme solution was removed from ice and equilibrated to RT by incubation in a RT water bath.
Preparation of 4×ITK substrate solution was as follows: 50 mL of ITK assay buffer was treated with 100 μL of BTK peptide (China Peptide Company, 2 mM stock solution in DMSO). The tube was capped, mixed by gently inverting the tube, and then stored on ice. 30 Minutes prior to use, the substrate solution was removed from ice and equilibrated to RT by incubation in a RT water bath.
At the time of assay, 7.5 μL of the 1.33×ITK enzyme solution was added to plate wells containing 0.1 μL of varying concentrations of test compound in DMSO. The plate was incubated 30 min at RT. The plate wells were each treated with 2.5 uL of the 4×ITK substrate solution and the plate was sealed (TopSeal™, Perkin Elmer). The plate was spun at 1000 rpm for 30 sec and then incubated for 60 min at RT. The seal was removed, and each well was treated with 10 μL of Stop/Detect Buffer (20 mM HEPES pH 7.5, 0.01% gelatin, 1 nM LANCE PT66 (Perkin Elmer), 16.5 μg/ml Surelight APC (Perkin Elmer), 10 mM EDTA, 250 mM NaCl). The plate was again covered and was spun at 1000 rpm for 30 seconds. The plate was allowed to incubate overnight at RT and in a closed carrier to reduce dehydration. The seal was removed, and the fluorescence was read with a plate reader with […]. The concentrations and resulting effect values for the tested compound were plotted and the concentration of compound required for 50% effect (IC50) was determined with the four-parameter logistic dose response equation.

[3] = system: IL-2 in supernatants from activated CD4+ human T-cells; test: IL-2 inhibition in supernatants from activated CD4+ human T-cells (cisbio HTRF); type: cell-based; details: T-cell; geometric mean of count n; activated CD4+ human T-cells, 20 to 24 hrs; read-out: IL-2 IC50
Protocol: IL-2-Inhibition Activity, IC50 (uM)
IL-2 inhibition activity in supernatants from activated CD4+ human T-cells was determined by measuring the effect of a test compound on the activity using the cisbio HTRF™ technology.
Human CD4+ T cells were activated with CD3/CD28 for 3 days and expanded for an additional 4-6 days (7 to 9 days total). On day 0, frozen CD4+ T cells were thawed, treated with CD3/CD28 Dynabeads, and incubated at 37° C./5% CO2. On day 3, the beads were removed, and the cells were diluted to 5×10^5 cells/cm^2, placed in G-Rex10 flask, and incubated at 37° C./5% CO2. On day 7 to day 9 the cells were removed from the G-Rex flasks, counted and diluted back to 1×10^6 cells/ml in standard tissue culture flask.
The expanded CD4+ T-cells were centrifuged at 300×g for 10 minutes and resuspended to 0.5 million cells per ml (30,000 cells/well). 60 μl of CD4+ T cells were added per well to a 384 well plate containing 0.1 μL of varying concentrations of test compound in DMSO. The plates were incubated for 15 min at 37° C./5% CO2. 20 μl of diluted ImmunoCult™ (STEMCELL Technologies, 1:12.5 in T cell assay media) were added to all wells of the plate (1:50 final assay concentration). The plates were incubated for an additional 20 to 24 hrs at 37° C./5% CO2. The plates were centrifuged at 300×g for 10 minutes. 16 μL of supernatant was removed and combined with 4 μl of IL-2 HTRF Abs. (cisbio kit). Plates were incubated for 3 hours at RT and read with an EnVision plate reader at 665 nm and 615 nm wavelengths. The concentrations and resulting effect values for the tested compound were plotted and the concentration of compound required for 50% effect (IC50) was determined with the four-parameter logistic dose response equation.

Sequence of IL-2-Inducible T-Cell Kinase (ITK) (Q08881 whole entry): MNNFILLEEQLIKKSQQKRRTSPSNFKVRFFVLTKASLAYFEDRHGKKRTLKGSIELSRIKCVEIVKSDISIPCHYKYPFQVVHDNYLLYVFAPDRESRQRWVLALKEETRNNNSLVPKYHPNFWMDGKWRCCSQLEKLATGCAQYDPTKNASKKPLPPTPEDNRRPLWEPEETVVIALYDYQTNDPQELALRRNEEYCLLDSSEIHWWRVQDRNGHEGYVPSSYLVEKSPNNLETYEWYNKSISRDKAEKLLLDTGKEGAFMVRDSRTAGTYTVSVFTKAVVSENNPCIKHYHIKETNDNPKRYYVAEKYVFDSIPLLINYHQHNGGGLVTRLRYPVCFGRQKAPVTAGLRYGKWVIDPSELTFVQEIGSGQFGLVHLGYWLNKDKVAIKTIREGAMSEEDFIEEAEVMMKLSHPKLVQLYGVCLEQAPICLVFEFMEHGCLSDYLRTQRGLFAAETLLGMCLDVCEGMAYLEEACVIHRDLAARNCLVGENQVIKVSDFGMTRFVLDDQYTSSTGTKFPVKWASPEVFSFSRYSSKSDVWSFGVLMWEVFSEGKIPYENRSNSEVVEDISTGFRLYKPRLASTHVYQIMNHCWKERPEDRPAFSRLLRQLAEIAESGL
Sequence of Tropomyosin Receptor Kinase A (TRKA, NTRK1 enzyme) (P04629 33-796): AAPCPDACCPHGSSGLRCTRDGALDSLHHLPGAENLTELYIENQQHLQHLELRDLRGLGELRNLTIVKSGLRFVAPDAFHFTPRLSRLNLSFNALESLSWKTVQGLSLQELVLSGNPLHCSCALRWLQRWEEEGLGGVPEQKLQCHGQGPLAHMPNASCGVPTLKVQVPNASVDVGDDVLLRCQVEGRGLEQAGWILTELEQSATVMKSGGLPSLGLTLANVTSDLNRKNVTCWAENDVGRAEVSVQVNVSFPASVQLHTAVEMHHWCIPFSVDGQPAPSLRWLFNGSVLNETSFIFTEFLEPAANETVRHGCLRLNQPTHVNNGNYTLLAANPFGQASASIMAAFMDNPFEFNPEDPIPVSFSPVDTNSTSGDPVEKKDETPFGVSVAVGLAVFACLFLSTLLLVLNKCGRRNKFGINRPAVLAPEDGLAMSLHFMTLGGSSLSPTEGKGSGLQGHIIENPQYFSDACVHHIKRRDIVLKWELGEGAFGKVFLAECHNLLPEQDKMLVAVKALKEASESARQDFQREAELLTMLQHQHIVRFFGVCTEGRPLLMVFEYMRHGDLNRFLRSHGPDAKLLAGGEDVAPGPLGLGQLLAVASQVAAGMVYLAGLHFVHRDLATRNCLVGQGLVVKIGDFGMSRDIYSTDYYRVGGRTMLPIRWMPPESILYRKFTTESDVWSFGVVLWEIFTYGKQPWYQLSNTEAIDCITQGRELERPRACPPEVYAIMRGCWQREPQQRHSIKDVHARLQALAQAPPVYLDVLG

**Q.** Which results are given for `CC(=O)N(C)c1ccc2[nH]c(-c3n[nH]c4c3C[C@@H]3C(F)(F)[C@]3(C)C4)nc2c1` [Example 2, N-(2-((4aS,5aR)-5,5-difluoro-5a-methyl-1,4,4a,5,5a,6-hexahydrocyclopropa[f]indazol-3-yl)-1H-benzo[d]imidazol-5-yl)-N-methylacetamide]?
**A.** inhibition at 1 µM [1]: 95%; IC50 [2]: 4 nM; IC50 [3]: 15 nM

**Q.** With `CC(=O)Nc1cc2nc(-c3n[nH]c4c3C[C@@H]3C[C@]3(C)C4)[nH]c2cc1C` [Example 4, N-(6-methyl-2-((4aS,5aR)-5a-methyl-1,4,4a,5,5a,6-hexahydrocyclopropa[f]indazol-3-yl)-1H-benzo[d]imidazol-5-yl)acetamide] as the compound, how does the inhibition at 1 µM [1] read?
**A.** 105%

**Q.** And the IC50 [2]?
**A.** 71 nM

**Q.** What about the IC50 [3] of the same compound?
**A.** 391 nM

**Q.** For `COc1cc2[nH]c(-c3n[nH]c4c3C[C@@H]3C[C@]3(C)C4)nc2cc1N(C)C(C)=O` [Example 6, N-(6-methoxy-2-((4aS,5aR)-5a-methyl-1,4,4a,5,5a,6-hexahydrocyclopropa[f]indazol-3-yl)-1H-benzo[d]imidazol-5-yl)-N-methylacetamide], which inhibition at 1 µM [1] is on record?
**A.** 103%

**Q.** And the IC50 [2]?
**A.** 37 nM

**Q.** What about the IC50 [3] of the same compound?
**A.** 173 nM

**Q.** What does the source list for `Cc1cc2[nH]c(-c3n[nH]c4c3C[C@@H]3C[C@]3(C)C4)nc2cc1N(C)C(=O)C1(C)CC1` [Example 24, N,1-Dimethyl-N-(5-methyl-2-((4aS,5aR)-5a-methyl-1,4,4a,5,5a,6-hexahydrocyclopropa[f]indazol-3-yl)-1H-benzo[d]imidazol-6-yl)cyclopropane-1-carboxamide]?
**A.** IC50 [2]: 37 nM; IC50 [3]: 259 nM

**Q.** Which IC50 [2] does the source give for `Cc1cc2[nH]c(-c3n[nH]c4c3C[C@@H]3C[C@]3(C)C4)nc2cc1N(C)C(=O)[C@H](C)N1CCCC1=O` [Example 25, (S)-N-Methyl-N-(6-methyl-2-((4aS,5aR)-5a-methyl-1,4,4a,5,5a,6-hexahydrocyclopropa[f]indazol-3-yl)-1H-benzo[d]imidazol-5-yl)-2-(2-oxopyrrolidin-1-yl)propenamide] here?
**A.** 72 nM

**Q.** And the IC50 [3]?
**A.** 572 nM

**Q.** With `CCCC(=O)N(C)c1cc2nc(-c3n[nH]c4c3C[C@@H]3C[C@]3(C)C4)[nH]c2cc1C` [Example 26, N-Methyl-N-(6-methyl-2-((4aS,5aR)-5a-methyl-1,4,4a,5,5a,6-hexahydrocyclopropa[f]indazol-3-yl)-1H-benzo[d]imidazol-5-yl)butyramide] as the compound, how does the IC50 [2] read?
**A.** 6 nM

**Q.** What about the IC50 [3] of the same compound?
**A.** 47 nM

**Q.** With `CC[C@@H](C(=O)N(C)c1cc2nc(-c3n[nH]c4c3C[C@@H]3C[C@]3(C)C4)[nH]c2cc1C)N1CCCC1=O` [Example 27, (S)-N-Methyl-N-(6-methyl-2-((4aS,5aR)-5a-methyl-1,4,4a,5,5a,6-hexahydrocyclopropa[f]indazol-3-yl)-1H-benzo[d]imidazol-5-yl)-2-(2-oxopyrrolidin-1-yl)butanamide] as the compound, how does the IC50 [2] read?
**A.** 77 nM

**Q.** What about the IC50 [3] of the same compound?
**A.** 489 nM

**Q.** Which results are given for `Cc1cc2[nH]c(-c3n[nH]c4c3C[C@@H]3C[C@]3(C)C4)nc2cc1N(C)C(=O)C(C)(C)F` [Example 28, 2-Fluoro-N,2-dimethyl-N-(6-methyl-2-((4aS,5aR)-5a-methyl-1,4,4a,5,5a,6-hexahydrocyclopropa[f]indazol-3-yl)-1H-benzo[d]imidazol-5-yl)propenamide]?
**A.** IC50 [2]: 7 nM; IC50 [3]: 57 nM

**Q.** Which IC50 [2] does the source give for `Cc1cc2[nH]c(-c3n[nH]c4c3C[C@@H]3C[C@]3(C)C4)nc2cc1N(C)C(=O)C1(F)CC1` [Example 32, 1-Fluoro-N-methyl-N-(6-methyl-2-((4aS,5aR)-5a-methyl-1,4,4a,5,5a,6-hexahydrocyclopropa[f]indazol-3-yl)-1H-benzo[d]imidazol-5-yl)cyclopropane-1-carboxamide] here?
**A.** 8 nM

**Q.** What about the IC50 [3] of the same compound?
**A.** 118 nM

**Q.** What does the source list for `CCC(=O)N(C)c1cc2nc(-c3n[nH]c4c3C[C@@H]3C[C@]3(C)C4)[nH]c2cc1C` [Example 33, N-Methyl-N-(6-methyl-2-((4aS,5aR)-5a-methyl-1,4,4a,5,5a,6-hexahydrocyclopropa[f]indazol-3-yl)-1H-benzo[d]imidazol-5-yl)propionamide]?
**A.** IC50 [2]: 5 nM; IC50 [3]: 53 nM

**Q.** `Cc1cc2[nH]c(-c3n[nH]c4c3C[C@@H]3C[C@]3(C)C4)nc2cc1N(C)C(=O)CN1CCCCCC1=O` [Example 34, N-Methyl-N-(6-methyl-2-((4aS,5aR)-5a-methyl-1,4,4a,5,5a,6-hexahydrocyclopropa[f]indazol-3-yl)-1H-benzo[d]imidazol-5-yl)-2-(2-oxoazepan-1-yl)acetamide] was tested. Which IC50 [2] did it give?
**A.** 4 nM

**Q.** And the IC50 [3]?
**A.** 43 nM

**Q.** What does the source list for `Cc1cc2[nH]c(-c3n[nH]c4c3C[C@@H]3C[C@]3(C)C4)nc2cc1N(C)C(=O)C1CCC1` [Example 36, N-Methyl-N-(6-methyl-2-((4aS,5aR)-5a-methyl-1,4,4a,5,5a,6-hexahydrocyclopropa[f]indazol-3-yl)-1H-benzo[d]imidazol-5-yl)cyclobutanecarboxamide]?
**A.** IC50 [2]: 5 nM; IC50 [3]: 57 nM

**Q.** Which IC50 [2] does the source give for `CCC(C(=O)N(C)c1cc2nc(-c3n[nH]c4c3C[C@@H]3C[C@]3(C)C4)[nH]c2cc1C)N1CCCC1=O` (stereo partly drawn) [Example 37, N-Methyl-N-(6-methyl-2-((4aS,5aR)-5a-methyl-1,4,4a,5,5a,6-hexahydrocyclopropa[f]indazol-3-yl)-1H-benzo[d]imidazol-5-yl)-2-(2-oxopyrrolidin-1-yl)butanamide] here?
**A.** 61 nM

**Q.** What about the IC50 [3] of the same compound?
**A.** 506 nM

**Q.** For `COC(C)(C)C(=O)N(C)c1cc2nc(-c3n[nH]c4c3C[C@@H]3C[C@]3(C)C4)[nH]c2cc1C` [Example 39, 2-Methoxy-N,2-dimethyl-N-(6-methyl-2-((4aS,5aR)-5a-methyl-1,4,4a,5,5a,6-hexahydrocyclopropa[f]indazol-3-yl)-1H-benzo[d]imidazol-5-yl)propenamide], which IC50 [2] is on record?
**A.** 74 nM

**Q.** And the IC50 [3]?
**A.** 268 nM

**Q.** How did the IC50 [2] turn out when `Cc1cc2[nH]c(-c3n[nH]c4c3C[C@@H]3C[C@]3(C)C4)nc2cc1N(C)C(=O)[C@H]1CCOC1` [Example 40, (S)-N-Methyl-N-(6-methyl-2-((4aS,5aR)-5a-methyl-1,4,4a,5,5a,6-hexahydrocyclopropa[f]indazol-3-yl)-1H-benzo[d]imidazol-5-yl)tetrahydrofuran-3-carboxamide] was run?
**A.** 13 nM

**Q.** What about the IC50 [3] of the same compound?
**A.** 114 nM
